Blank lines part the entries; values can stand above or below the molecule they belong to.
Columns and labels:
[1] = target: NUAK family SNF1-like kinase 1 (Homo sapiens, UniProt O60285); assay: Selectivity interaction (Enzymatic assay) EUB0001199aCl NUAK1
[2] = target: T1, Ephrin type-B receptor 4 (Homo sapiens) (UniProt P54760); assay: Selectivity interaction (KinomeScan (DiscoverX)) EUB0001079a EPHB4; conditions: at 1 µM
T1 sequence (whole entry): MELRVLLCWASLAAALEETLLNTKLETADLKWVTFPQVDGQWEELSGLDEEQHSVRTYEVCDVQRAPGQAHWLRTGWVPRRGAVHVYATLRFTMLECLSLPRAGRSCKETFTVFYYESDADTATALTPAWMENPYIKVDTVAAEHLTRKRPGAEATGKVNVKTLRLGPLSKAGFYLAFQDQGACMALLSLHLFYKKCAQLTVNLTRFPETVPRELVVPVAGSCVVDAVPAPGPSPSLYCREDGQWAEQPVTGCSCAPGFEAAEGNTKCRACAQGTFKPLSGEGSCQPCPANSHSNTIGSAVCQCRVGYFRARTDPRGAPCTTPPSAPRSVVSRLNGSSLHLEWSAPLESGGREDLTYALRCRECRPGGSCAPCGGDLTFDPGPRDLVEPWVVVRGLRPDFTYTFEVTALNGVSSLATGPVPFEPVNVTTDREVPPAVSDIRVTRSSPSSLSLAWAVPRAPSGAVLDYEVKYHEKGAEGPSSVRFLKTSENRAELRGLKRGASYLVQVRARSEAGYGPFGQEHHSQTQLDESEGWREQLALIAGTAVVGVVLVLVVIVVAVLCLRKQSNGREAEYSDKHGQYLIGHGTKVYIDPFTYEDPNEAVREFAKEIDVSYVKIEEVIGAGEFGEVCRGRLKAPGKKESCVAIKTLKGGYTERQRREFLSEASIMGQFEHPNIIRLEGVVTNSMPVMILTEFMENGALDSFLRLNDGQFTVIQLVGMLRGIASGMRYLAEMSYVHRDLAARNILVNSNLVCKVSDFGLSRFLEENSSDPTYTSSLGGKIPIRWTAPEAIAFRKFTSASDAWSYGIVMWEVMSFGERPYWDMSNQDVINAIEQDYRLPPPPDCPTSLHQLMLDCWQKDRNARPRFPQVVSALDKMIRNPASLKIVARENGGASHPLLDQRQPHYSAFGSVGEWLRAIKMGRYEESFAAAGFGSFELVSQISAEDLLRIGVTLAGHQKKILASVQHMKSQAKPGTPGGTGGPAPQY

[3] = target: Serine/threonine-protein kinase SIK3 (Homo sapiens) (UniProt Q9Y2K2); assay: Selectivity interaction (KinomeScan (DiscoverX)) EUB0000607a SIK3; conditions: at 10 µM
[4] = target: T2, Receptor-interacting serine/threonine-protein kinase 1 (Homo sapiens) (UniProt Q13546); assay: Selectivity interaction (KinomeScan (DiscoverX)) EUB0000595a RIPK1; conditions: at 10 µM
T2 sequence (whole entry): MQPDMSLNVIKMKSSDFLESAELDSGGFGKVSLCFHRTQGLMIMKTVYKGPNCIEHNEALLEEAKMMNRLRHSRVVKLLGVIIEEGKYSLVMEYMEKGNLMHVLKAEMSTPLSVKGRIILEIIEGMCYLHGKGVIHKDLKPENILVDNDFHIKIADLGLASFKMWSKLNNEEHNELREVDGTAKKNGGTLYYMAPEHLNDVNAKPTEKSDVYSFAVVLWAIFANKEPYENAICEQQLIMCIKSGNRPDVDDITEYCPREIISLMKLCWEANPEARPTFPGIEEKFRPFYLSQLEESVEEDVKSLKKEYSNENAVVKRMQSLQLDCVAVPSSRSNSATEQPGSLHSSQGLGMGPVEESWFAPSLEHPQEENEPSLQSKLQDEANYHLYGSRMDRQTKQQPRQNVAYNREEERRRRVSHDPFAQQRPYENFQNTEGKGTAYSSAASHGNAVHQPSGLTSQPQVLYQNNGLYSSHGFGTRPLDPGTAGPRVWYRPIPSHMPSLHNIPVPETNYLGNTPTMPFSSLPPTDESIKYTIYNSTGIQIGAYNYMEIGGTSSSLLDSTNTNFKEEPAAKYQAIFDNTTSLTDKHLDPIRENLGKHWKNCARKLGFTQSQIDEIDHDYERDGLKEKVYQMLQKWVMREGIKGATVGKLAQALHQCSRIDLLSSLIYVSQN

[5] = target: Serine/threonine-protein kinase mTOR (Homo sapiens, UniProt P42345); assay: Selectivity interaction (KinomeScan (DiscoverX)) EUB0000229b MTOR; conditions: at 10 µM
[6] = target: Leukocyte tyrosine kinase receptor (Homo sapiens, UniProt P29376); assay: Selectivity interaction (ProQinase) EUB0000171b LTK
[7] = target: Mitogen-activated protein kinase kinase kinase 14 (Homo sapiens) (UniProt Q99558); assay: Selectivity interaction (KinomeScan (DiscoverX)) EUB0001049a MAP3K14; conditions: at 1 µM
[8] = target: Fibroblast growth factor receptor 4 (Homo sapiens, UniProt P22455); assay: Selectivity interaction (Kinase panel (33PanQinase(R) Activity Assay)) EUB0000877a FGFR4
[9] = test system: Leucine-rich repeat serine/threonine-protein kinase 2 (Homo sapiens), Q5S007 [I2020T]; assay: (§1) Selectivity interaction (Adapta Assay) EUB0001632a LRRK2; conditions: at 10 µM
[10] = test system: Leucine-rich repeat serine/threonine-protein kinase 2 (Homo sapiens), Q5S007 [R1441C]; assay: as §1; conditions: at 10 µM
[11] = target: Leucine-rich repeat serine/threonine-protein kinase 2 (Homo sapiens, UniProt Q5S007); assay: as §1; conditions: at 10 µM
[12] = test system: Leucine-rich repeat serine/threonine-protein kinase 2 (Homo sapiens), Q5S007 [G2019S]; assay: as §1; conditions: at 10 µM
[13] = test system: PI3-kinase p110-alpha/p85-alpha (Homo sapiens), P27986+P42336 [E545K]; assay: Selectivity interaction (Adapta Assay) EUB0001632a PIK3CA; type: protein-complex assay; conditions: at 10 µM

Chain of Leukocyte tyrosine kinase receptor (P29376 whole entry): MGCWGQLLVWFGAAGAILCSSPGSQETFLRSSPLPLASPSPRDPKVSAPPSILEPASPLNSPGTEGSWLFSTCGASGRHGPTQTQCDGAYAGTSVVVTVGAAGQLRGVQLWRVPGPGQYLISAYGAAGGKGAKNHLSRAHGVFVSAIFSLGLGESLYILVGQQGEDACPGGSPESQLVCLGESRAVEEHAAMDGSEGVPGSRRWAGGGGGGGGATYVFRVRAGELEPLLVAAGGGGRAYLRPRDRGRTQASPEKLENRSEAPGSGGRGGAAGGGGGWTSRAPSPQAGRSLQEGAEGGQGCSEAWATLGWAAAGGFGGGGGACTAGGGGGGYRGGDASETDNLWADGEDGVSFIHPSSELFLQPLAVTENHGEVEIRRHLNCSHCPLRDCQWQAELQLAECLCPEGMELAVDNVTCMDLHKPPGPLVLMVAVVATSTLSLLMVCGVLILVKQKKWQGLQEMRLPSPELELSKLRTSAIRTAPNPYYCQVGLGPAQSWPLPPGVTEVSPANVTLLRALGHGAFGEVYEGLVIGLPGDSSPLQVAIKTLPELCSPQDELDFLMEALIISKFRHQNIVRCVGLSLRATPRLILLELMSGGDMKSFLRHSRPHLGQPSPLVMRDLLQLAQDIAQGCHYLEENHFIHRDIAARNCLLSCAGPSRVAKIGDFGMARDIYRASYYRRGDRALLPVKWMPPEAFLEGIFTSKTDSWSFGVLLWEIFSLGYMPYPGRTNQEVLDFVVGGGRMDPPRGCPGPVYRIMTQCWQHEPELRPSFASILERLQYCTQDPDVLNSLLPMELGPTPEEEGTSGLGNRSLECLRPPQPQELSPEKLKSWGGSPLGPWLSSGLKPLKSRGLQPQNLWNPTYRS
Chain of Serine/threonine-protein kinase SIK3 (Homo sapiens) (Q9Y2K2 whole entry, looked up): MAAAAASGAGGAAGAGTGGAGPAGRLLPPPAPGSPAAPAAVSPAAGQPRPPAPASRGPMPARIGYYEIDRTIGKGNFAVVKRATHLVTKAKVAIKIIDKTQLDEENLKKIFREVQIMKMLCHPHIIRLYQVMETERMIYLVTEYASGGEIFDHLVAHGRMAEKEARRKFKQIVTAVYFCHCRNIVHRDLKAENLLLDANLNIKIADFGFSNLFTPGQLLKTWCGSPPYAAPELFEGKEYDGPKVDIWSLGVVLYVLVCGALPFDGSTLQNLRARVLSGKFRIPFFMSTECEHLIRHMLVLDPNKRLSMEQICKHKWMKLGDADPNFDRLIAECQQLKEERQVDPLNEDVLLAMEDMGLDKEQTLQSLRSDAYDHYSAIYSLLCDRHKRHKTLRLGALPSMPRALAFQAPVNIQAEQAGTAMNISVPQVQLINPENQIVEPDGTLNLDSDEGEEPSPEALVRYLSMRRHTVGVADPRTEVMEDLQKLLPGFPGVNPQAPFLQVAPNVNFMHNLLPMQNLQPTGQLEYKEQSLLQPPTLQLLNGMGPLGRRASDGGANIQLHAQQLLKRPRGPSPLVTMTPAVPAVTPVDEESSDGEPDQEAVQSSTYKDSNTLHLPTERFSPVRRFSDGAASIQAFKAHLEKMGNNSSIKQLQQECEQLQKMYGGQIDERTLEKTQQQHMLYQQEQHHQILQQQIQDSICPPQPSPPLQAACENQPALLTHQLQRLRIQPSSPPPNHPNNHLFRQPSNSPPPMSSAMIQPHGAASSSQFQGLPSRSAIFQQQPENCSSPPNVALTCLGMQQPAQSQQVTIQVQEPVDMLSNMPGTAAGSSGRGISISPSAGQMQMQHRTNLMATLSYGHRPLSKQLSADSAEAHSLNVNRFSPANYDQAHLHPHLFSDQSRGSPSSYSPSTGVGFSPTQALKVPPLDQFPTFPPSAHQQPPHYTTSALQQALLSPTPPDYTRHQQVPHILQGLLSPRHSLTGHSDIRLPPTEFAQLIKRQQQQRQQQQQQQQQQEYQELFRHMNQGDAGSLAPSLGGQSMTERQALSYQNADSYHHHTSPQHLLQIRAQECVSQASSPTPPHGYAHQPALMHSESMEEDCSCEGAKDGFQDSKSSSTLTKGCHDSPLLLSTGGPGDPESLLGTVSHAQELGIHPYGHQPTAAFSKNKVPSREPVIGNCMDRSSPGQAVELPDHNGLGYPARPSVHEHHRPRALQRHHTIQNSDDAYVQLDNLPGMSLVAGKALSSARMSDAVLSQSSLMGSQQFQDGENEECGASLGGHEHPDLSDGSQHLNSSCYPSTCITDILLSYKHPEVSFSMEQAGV
Chain of Fibroblast growth factor receptor 4 (P22455 whole entry): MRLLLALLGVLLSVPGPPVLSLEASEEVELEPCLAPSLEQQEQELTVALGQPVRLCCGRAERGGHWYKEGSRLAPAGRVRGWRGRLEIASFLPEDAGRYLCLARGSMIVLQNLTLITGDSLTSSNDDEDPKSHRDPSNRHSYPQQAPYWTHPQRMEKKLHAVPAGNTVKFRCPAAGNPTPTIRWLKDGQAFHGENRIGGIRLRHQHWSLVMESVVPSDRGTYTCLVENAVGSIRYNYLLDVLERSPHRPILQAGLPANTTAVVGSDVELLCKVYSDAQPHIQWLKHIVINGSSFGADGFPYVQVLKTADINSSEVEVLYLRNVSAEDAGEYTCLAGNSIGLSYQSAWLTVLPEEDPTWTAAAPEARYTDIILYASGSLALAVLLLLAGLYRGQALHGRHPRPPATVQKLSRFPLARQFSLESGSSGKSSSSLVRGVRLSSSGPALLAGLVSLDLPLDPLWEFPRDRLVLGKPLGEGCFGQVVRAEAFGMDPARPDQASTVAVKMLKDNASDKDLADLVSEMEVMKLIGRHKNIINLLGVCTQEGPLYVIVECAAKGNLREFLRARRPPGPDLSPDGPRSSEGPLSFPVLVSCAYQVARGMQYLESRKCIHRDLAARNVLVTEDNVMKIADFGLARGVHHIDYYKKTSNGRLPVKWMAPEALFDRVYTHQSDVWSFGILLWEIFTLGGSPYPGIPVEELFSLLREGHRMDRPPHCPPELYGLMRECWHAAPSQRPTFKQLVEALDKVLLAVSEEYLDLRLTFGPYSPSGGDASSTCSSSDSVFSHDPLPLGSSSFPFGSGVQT
Chain of Mitogen-activated protein kinase kinase kinase 14 (Homo sapiens) (Q99558 whole entry, looked up): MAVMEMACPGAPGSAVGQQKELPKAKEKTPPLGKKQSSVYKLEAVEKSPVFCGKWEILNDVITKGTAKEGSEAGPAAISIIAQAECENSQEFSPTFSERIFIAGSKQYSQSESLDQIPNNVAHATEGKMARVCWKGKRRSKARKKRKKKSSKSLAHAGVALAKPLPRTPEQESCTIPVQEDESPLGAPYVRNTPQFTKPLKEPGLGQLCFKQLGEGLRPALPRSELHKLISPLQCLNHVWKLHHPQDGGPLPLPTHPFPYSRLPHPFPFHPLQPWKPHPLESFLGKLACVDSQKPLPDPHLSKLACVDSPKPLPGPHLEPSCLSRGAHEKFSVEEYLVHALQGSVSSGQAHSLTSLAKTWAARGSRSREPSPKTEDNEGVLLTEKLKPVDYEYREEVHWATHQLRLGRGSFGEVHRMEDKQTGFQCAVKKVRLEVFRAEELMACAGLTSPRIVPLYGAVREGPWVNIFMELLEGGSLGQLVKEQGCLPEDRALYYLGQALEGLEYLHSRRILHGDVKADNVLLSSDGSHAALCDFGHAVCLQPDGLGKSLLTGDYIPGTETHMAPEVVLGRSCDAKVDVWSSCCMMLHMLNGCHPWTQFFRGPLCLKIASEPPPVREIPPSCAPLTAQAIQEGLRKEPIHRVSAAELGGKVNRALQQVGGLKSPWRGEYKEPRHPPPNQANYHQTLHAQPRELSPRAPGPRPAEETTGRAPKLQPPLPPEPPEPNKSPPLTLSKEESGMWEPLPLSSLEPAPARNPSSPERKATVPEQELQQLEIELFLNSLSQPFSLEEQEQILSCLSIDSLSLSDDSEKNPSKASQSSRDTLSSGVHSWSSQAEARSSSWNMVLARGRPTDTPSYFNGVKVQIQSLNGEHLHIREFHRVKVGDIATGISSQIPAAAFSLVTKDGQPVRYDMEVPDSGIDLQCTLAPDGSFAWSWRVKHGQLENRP
Chain of NUAK family SNF1-like kinase 1 (O60285 whole entry): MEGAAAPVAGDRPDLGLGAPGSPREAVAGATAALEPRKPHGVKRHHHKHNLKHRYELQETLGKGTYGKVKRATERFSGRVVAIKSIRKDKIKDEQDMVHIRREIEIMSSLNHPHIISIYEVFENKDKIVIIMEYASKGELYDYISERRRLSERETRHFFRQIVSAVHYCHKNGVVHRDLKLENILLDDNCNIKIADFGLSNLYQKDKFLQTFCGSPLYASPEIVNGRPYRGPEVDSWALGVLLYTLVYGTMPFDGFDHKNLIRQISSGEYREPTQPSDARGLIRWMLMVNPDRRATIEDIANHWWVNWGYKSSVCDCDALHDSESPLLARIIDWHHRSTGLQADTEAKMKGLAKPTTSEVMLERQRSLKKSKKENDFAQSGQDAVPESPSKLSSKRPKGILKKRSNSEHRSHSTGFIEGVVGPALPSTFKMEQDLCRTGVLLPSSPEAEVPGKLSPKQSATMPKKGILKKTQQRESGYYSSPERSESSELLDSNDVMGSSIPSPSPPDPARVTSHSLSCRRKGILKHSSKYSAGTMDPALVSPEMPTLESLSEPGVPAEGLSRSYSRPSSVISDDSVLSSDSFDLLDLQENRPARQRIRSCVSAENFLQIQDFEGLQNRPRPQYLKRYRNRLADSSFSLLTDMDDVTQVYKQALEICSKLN

IC50 [1]: 10.2 µM
SMILES: CN1Cc2nccc(-c3cn(C)nc3-c3ccc(F)cc3)c2C1=O

SMILES: Nc1cnc(N2CCc3cc(S(=O)(=O)Nc4c(F)cc(Cl)cc4F)cc(N4CCCC4=O)c32)nc1 [TP-020n]
% of control [2]: 100%

SMILES: CNC(=O)Nc1ccc(-c2nc(N3CC4CCC(C3)O4)c3cnn(C4CCC5(CC4)OCCO5)c3n2)cc1
% of control [3]: 35%

SMILES: COCC(=O)NC/C=C/c1ccc2ncnc(Nc3ccc(Oc4ccc(C)nc4)c(C)c3)c2c1 [CP-724714]
% of control [4]: 100%

SMILES: COc1cc(N(C)c2ccnc3ccc(C(F)(F)F)cc23)cc(OC)c1OC
% binding [5]: 94%

% of control ([6]; at 1 µM): 108% | % of control ([6]; at 5 µM): 99%
SMILES: C=CC(=O)Nc1cccc(C(=O)Nc2ccc(Nc3cc(-c4[nH]c(SC)nc4C)ccn3)cc2)c1

SMILES: COc1cc(Nc2nc(C)cc(-c3cnn4nc(OC)ccc34)n2)cc(C(F)(F)F)c1
% of control [7]: 98%

IC50 [8]: > 10 µM
SMILES: CCC(=O)N1CC[C@H](Nc2ncnc3c2CN(c2cnc(OC)c(C(F)(F)F)c2)CC3)C1 [LENIOLISIB]

% of inhibition [9]: 100% | % of inhibition [10]: 96.1% | % of inhibition [11]: 18.9% | % of inhibition [12]: 23.9% | % of inhibition [13]: 20%
SMILES: Cn1cc(-n2cnc3c(NCc4nc5cc(Cl)c(Cl)cc5[nH]4)nc(N4CCOCC4)nc32)cn1
